Laboratory results: ChEMBL document CHEMBL1201862, “PubChem BioAssay data set” (2004)
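Dose response: 5 concentrations. Exposure: 48 h. Format: 96-well plates. Endpoint: linear interpolation; highest concentration if not reached. GI50 is the concentration that inhibits growth by half.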 The source made the active and inactive calls. Rule as the data show it: active = GI50 up to about 1.1 µM and inactive = higher.

Assays:
Assay in all cases: inhibition of tumour cell growth, NCI panel, 48 h
786-0 = tested on: 786-0
A498 = tested on: A498
A549 = tested on: A549
ACHN = tested on: ACHN
CAKI-1 = tested on: CAKI-1
CCRF-CEM = tested on: CCRF-CEM
COLO 205 = tested on: COLO 205
DLD-1 = tested on: DLD-1
DMS-114 = tested on: DMS-114
DMS-273 = tested on: DMS-273
EKVX = tested on: EKVX
HCC 2998 = tested on: HCC 2998
HCT-116 = tested on: HCT-116
HCT-15 = tested on: HCT-15
HL-60 = tested on: HL-60
HOP-18 = tested on: HOP-18
HOP-62 = tested on: HOP-62
HOP-92 = tested on: HOP-92
HT-29 = tested on: HT-29
IGROV-1 = tested on: IGROV-1
K562 = tested on: K562
KM-20L2 = tested on: KM-20L2
KM12 = tested on: KM12
LOX IMVI = tested on: LOX IMVI
M14 = tested on: M14
M19-MEL = tested on: M19-MEL
MOLT-4 = tested on: MOLT-4
Malme-3M = tested on: Malme-3M
NCI-H226 = tested on: NCI-H226
NCI-H23 = tested on: NCI-H23
NCI-H460 = tested on: NCI-H460
NCI-H522 = tested on: NCI-H522
OVCAR-3 = tested on: OVCAR-3
OVCAR-4 = tested on: OVCAR-4
OVCAR-5 = tested on: OVCAR-5
OVCAR-8 = tested on: OVCAR-8
RPMI-8226 = tested on: RPMI-8226
SF-268 = tested on: SF-268
SF-295 = tested on: SF-295
SF-539 = tested on: SF-539
SK-MEL-28 = tested on: SK-MEL-28
SK-MEL-2 = tested on: SK-MEL-2
SK-MEL-5 = tested on: SK-MEL-5
SK-OV-3 = tested on: SK-OV-3
SN12C = tested on: SN12C
SNB-19 = tested on: SNB-19
SNB-75 = tested on: SNB-75
SNB-78 = tested on: SNB-78
SR = tested on: SR
SW-620 = tested on: SW-620
TK-10 = tested on: TK-10
U-251 = tested on: U-251
UACC-257 = tested on: UACC-257
UACC-62 = tested on: UACC-62
UO-31 = tested on: UO-31
XF498 = tested on: XF498

Structure (SMILES): Ic1ncnc2c1ncn2C1CCCO1 (stereo unspecified)
- GI50 (786-0): > 100 µM (inactive)
- GI50 (A498): > 100 µM (inactive)
- GI50 (A549): > 100 µM (inactive)
- GI50 (ACHN): > 100 µM (inactive)
- GI50 (CAKI-1): > 100 µM (inactive)
- GI50 (CCRF-CEM): > 100 µM (inactive)
- GI50 (COLO 205): > 100 µM (inactive)
- GI50 (DLD-1): > 100 µM (inactive)
- GI50 (DMS-114): > 100 µM (inactive)
- GI50 (DMS-273): > 100 µM (inactive)
- GI50 (EKVX): > 100 µM (inactive)
- GI50 (HCC 2998): > 100 µM (inactive)
- GI50 (HCT-116): > 100 µM (inactive)
- GI50 (HCT-15): > 100 µM
- GI50 (HL-60): > 100 µM (inactive)
- GI50 (HOP-18): > 100 µM (inactive)
- GI50 (HOP-62): > 100 µM (inactive)
- GI50 (HOP-92): > 100 µM (inactive)
- GI50 (HT-29): > 100 µM (inactive)
- GI50 (IGROV-1): > 100 µM (inactive)
- GI50 (K562): > 100 µM (inactive)
- GI50 (KM-20L2): > 100 µM (inactive)
- GI50 (KM12): > 100 µM (inactive)
- GI50 (LOX IMVI): > 100 µM (inactive)
- GI50 (M14): > 100 µM (inactive)
- GI50 (M19-MEL): > 100 µM (inactive)
- GI50 (MOLT-4): > 100 µM (inactive)
- GI50 (Malme-3M): > 100 µM (inactive)
- GI50 (NCI-H226): > 100 µM (inactive)
- GI50 (NCI-H23): > 100 µM (inactive)
- GI50 (NCI-H460): > 100 µM (inactive)
- GI50 (NCI-H522): > 100 µM (inactive)
- GI50 (OVCAR-3): > 100 µM (inactive)
- GI50 (OVCAR-4): > 100 µM (inactive)
- GI50 (OVCAR-5): > 100 µM (inactive)
- GI50 (OVCAR-8): > 100 µM (inactive)
- GI50 (RPMI-8226): > 100 µM (inactive)
- GI50 (SF-268): > 100 µM (inactive)
- GI50 (SF-295): > 100 µM (inactive)
- GI50 (SF-539): > 100 µM (inactive)
- GI50 (SK-MEL-28): > 100 µM (inactive)
- GI50 (SK-MEL-2): > 100 µM (inactive)
- GI50 (SK-MEL-5): > 100 µM (inactive)
- GI50 (SK-OV-3): > 100 µM (inactive)
- GI50 (SN12C): > 100 µM (inactive)
- GI50 (SNB-19): > 100 µM (inactive)
- GI50 (SNB-75): 35.8 µM (inactive)
- GI50 (SNB-78): > 100 µM (inactive)
- GI50 (SR): > 100 µM (inactive)
- GI50 (SW-620): > 100 µM (inactive)
- GI50 (TK-10): > 100 µM (inactive)
- GI50 (U-251): > 100 µM (inactive)
- GI50 (UACC-257): > 100 µM (inactive)
- GI50 (UACC-62): > 100 µM (inactive)
- GI50 (UO-31): > 100 µM (inactive)
- GI50 (XF498): > 100 µM (inactive)
